Reference: PubChem BioAssay (NCI)
Values joined by “and” are separate entries in the source; they are usually repeats but may differ in a detail not shown here. Equal entries are not always repeated.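 Each compound was tested at five concentrations against cells in 96-well plates for 48 hours. GI50 is the concentration that inhibits growth by half. TGI denotes the concentration required for complete inhibition of growth.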

Key:
Test in all cases: NCI anticancer screen, dose series, 48 h
786-0 renal = system: 786-0 renal
A498 renal = system: A498 renal
A549 NSCLC = system: A549 NSCLC
ACHN renal = system: ACHN renal
BT-549 breast = system: BT-549 breast
CAKI-1 renal = system: CAKI-1 renal
CCRF-CEM leukemia = system: CCRF-CEM leukemia
COLO 205 colon = system: COLO 205 colon
DU-145 prostate = system: DU-145 prostate
EKVX NSCLC = system: EKVX NSCLC
HCC-2998 colon = system: HCC-2998 colon
HCT-116 colon = system: HCT-116 colon
HCT-15 colon = system: HCT-15 colon
HL-60(TB) leukemia = system: HL-60(TB) leukemia
HOP-62 NSCLC = system: HOP-62 NSCLC
HOP-92 NSCLC = system: HOP-92 NSCLC
HS 578T breast = system: HS 578T breast
HT29 colon = system: HT29 colon
IGROV1 ovarian = system: IGROV1 ovarian
K-562 leukemia = system: K-562 leukemia
KM12 colon = system: KM12 colon
LOX IMVI melanoma = system: LOX IMVI melanoma
M14 melanoma = system: M14 melanoma
MALME-3M melanoma = system: MALME-3M melanoma
MCF7 breast = system: MCF7 breast
MDA-MB-231 breast = system: MDA-MB-231 breast
MDA-MB-435 = system: MDA-MB-435
MOLT-4 leukemia = system: MOLT-4 leukemia
NCI-H226 lung = system: NCI-H226 lung
NCI-H23 lung = system: NCI-H23 lung
NCI-H460 lung = system: NCI-H460 lung
NCI-H522 lung = system: NCI-H522 lung
NCI/ADR-RES ovarian = system: NCI/ADR-RES ovarian
OVCAR-3 ovarian = system: OVCAR-3 ovarian
OVCAR-4 ovarian = system: OVCAR-4 ovarian
OVCAR-5 ovarian = system: OVCAR-5 ovarian
OVCAR-8 ovarian = system: OVCAR-8 ovarian
PC-3 prostate = system: PC-3 prostate
RPMI-8226 leukemia = system: RPMI-8226 leukemia
RXF 393 renal = system: RXF 393 renal
SF-268 CNS = system: SF-268 CNS
SF-295 CNS = system: SF-295 CNS
SF-539 CNS = system: SF-539 CNS
SK-MEL-2 melanoma = system: SK-MEL-2 melanoma
SK-MEL-28 melanoma = system: SK-MEL-28 melanoma
SK-MEL-5 melanoma = system: SK-MEL-5 melanoma
SK-OV-3 ovarian = system: SK-OV-3 ovarian
SN12C renal = system: SN12C renal
SNB-19 CNS = system: SNB-19 CNS
SR leukemia = system: SR leukemia
SW-620 colon = system: SW-620 colon
T-47D breast = system: T-47D breast
TK-10 renal = system: TK-10 renal
U251 CNS = system: U251 CNS
UACC-257 melanoma = system: UACC-257 melanoma
UACC-62 melanoma = system: UACC-62 melanoma
UO-31 renal = system: UO-31 renal

SMILES: Cn1cnc2c(F)c(Nc3ccc(Br)cc3F)c(C(=O)NOCCO)cc21
- GI50 (786-0 renal): > 100000 nM
- TGI (786-0 renal): > 100000 nM
- GI50 (A498 renal): 18.4 nM and 31.4 nM
- TGI (A498 renal): 275 nM and 394 nM
- GI50 (A549 NSCLC): 5870 nM
- TGI (A549 NSCLC): > 100000 nM
- GI50 (ACHN renal): 10500 nM
- TGI (ACHN renal): > 100000 nM
- GI50 (BT-549 breast): > 60200 nM
- TGI (BT-549 breast): > 100000 nM
- GI50 (CAKI-1 renal): 5940 nM
- TGI (CAKI-1 renal): > 100000 nM
- GI50 (CCRF-CEM leukemia): > 100000 nM
- TGI (CCRF-CEM leukemia): > 100000 nM
- GI50 (COLO 205 colon): 11.3 nM and 23.6 nM
- GI50 (DU-145 prostate): 51100 nM
- TGI (DU-145 prostate): > 100000 nM
- GI50 (EKVX NSCLC): 109 nM and 503 nM
- TGI (EKVX NSCLC): > 100000 nM
- GI50 (HCC-2998 colon): 16.2 nM and 34 nM
- TGI (HCC-2998 colon): 4510 nM
- GI50 (HCT-116 colon): 203 nM and 317 nM
- TGI (HCT-116 colon): > 100000 nM
- GI50 (HCT-15 colon): 57500 nM
- TGI (HCT-15 colon): > 100000 nM
- GI50 (HL-60(TB) leukemia): 19.3 nM and 19.2 nM
- TGI (HL-60(TB) leukemia): > 100000 nM
- TGI (HOP-62 NSCLC): > 100000 nM
- GI50 (HOP-92 NSCLC): 60.6 nM and 110 nM
- TGI (HOP-92 NSCLC): 1900 nM and 2010 nM
- GI50 (HS 578T breast): > 2140 nM and 33600 nM
- TGI (HS 578T breast): > 100000 nM
- GI50 (HT29 colon): 26.3 nM and 31.6 nM
- TGI (HT29 colon): > 100000 nM
- TGI (IGROV1 ovarian): > 100000 nM
- GI50 (K-562 leukemia): 1330 nM and 10800 nM
- TGI (K-562 leukemia): > 100000 nM
- GI50 (KM12 colon): 264 nM and 445 nM
- TGI (KM12 colon): > 100000 nM
- GI50 (LOX IMVI melanoma): 93.6 nM and 399 nM
- TGI (LOX IMVI melanoma): > 4030 nM and 42800 nM
- GI50 (M14 melanoma): 17.5 nM and 23.3 nM
- TGI (M14 melanoma): 307 nM
- GI50 (MALME-3M melanoma): 13.6 nM and < 10 nM
- TGI (MALME-3M melanoma): 138 nM and 48.6 nM
- GI50 (MCF7 breast): > 100000 nM
- TGI (MCF7 breast): > 100000 nM
- GI50 (MDA-MB-231 breast): 111 nM and 837 nM
- TGI (MDA-MB-231 breast): > 100000 nM
- GI50 (MDA-MB-435): 60.9 nM and 54.7 nM
- TGI (MDA-MB-435): > 100000 nM
- GI50 (MOLT-4 leukemia): > 100000 nM
- TGI (MOLT-4 leukemia): > 100000 nM
- TGI (NCI-H226 lung): > 100000 nM
- GI50 (NCI-H23 lung): 227 nM and 215 nM
- TGI (NCI-H23 lung): > 100000 nM
- GI50 (NCI-H460 lung): > 100000 nM
- TGI (NCI-H460 lung): > 100000 nM
- GI50 (NCI-H522 lung): > 63200 nM
- TGI (NCI-H522 lung): > 100000 nM
- GI50 (NCI/ADR-RES ovarian): > 100000 nM
- TGI (NCI/ADR-RES ovarian): > 100000 nM
- GI50 (OVCAR-3 ovarian): > 100000 nM
- TGI (OVCAR-3 ovarian): > 100000 nM
- GI50 (OVCAR-4 ovarian): 8060 nM
- TGI (OVCAR-4 ovarian): > 100000 nM
- GI50 (OVCAR-5 ovarian): 28.6 nM and 22 nM
- TGI (OVCAR-5 ovarian): > 48400 nM
- GI50 (OVCAR-8 ovarian): > 2170 nM and 99700 nM
- TGI (OVCAR-8 ovarian): > 100000 nM
- GI50 (PC-3 prostate): > 100000 nM
- TGI (PC-3 prostate): > 100000 nM
- GI50 (RPMI-8226 leukemia): > 56400 nM
- TGI (RPMI-8226 leukemia): > 100000 nM
- GI50 (RXF 393 renal): 455 nM and 4390 nM
- TGI (RXF 393 renal): > 96200 nM
- GI50 (SF-268 CNS): > 2050 nM and 50500 nM
- TGI (SF-268 CNS): > 100000 nM
- GI50 (SF-295 CNS): > 67700 nM
- TGI (SF-295 CNS): > 100000 nM
- GI50 (SF-539 CNS): > 3240 nM and 21500 nM
- TGI (SF-539 CNS): > 100000 nM
- GI50 (SK-MEL-2 melanoma): 29.6 nM and 11.3 nM
- TGI (SK-MEL-2 melanoma): 448 nM and 76.6 nM
- GI50 (SK-MEL-28 melanoma): 26.9 nM and 30.4 nM
- TGI (SK-MEL-28 melanoma): 321 nM and 889 nM
- GI50 (SK-MEL-5 melanoma): 787 nM and 414 nM
- TGI (SK-MEL-5 melanoma): > 100000 nM
- GI50 (SK-OV-3 ovarian): > 92000 nM
- TGI (SK-OV-3 ovarian): > 100000 nM
- GI50 (SN12C renal): 13700 nM
- TGI (SN12C renal): > 100000 nM
- GI50 (SNB-19 CNS): 4370 nM
- TGI (SNB-19 CNS): > 100000 nM
- GI50 (SR leukemia): > 47000 nM
- TGI (SR leukemia): > 100000 nM
- GI50 (SW-620 colon): 29 nM and 44.9 nM
- TGI (SW-620 colon): > 100000 nM
- GI50 (T-47D breast): > 100000 nM
- TGI (T-47D breast): > 100000 nM
- GI50 (TK-10 renal): 3070 nM and 1340 nM
- TGI (TK-10 renal): > 100000 nM
- GI50 (U251 CNS): 7780 nM
- TGI (U251 CNS): > 100000 nM
- GI50 (UACC-257 melanoma): 22.4 nM and 24 nM
- TGI (UACC-257 melanoma): 253 nM and 148 nM
- GI50 (UACC-62 melanoma): 17.4 nM and 23.4 nM
- TGI (UACC-62 melanoma): 228 nM and 664 nM
- GI50 (UO-31 renal): 7410 nM
- TGI (UO-31 renal): > 100000 nM
